The results in this text go back to patent publication US20190002429A1, “Derivatives of Xanthone Compounds” (Agency for Science, Technology and Research, priority 2011, published 2019).

Values after ≈ are worked out from the molar mass of the structure shown. Read-outs that look alike come from different tables or passages of the source. Where only a bound is given, the exact number is not on record here.

Series [1] relates to Mycobacterium tuberculosis.
For series [2], the system named is Staphylococcus aureus ATCC29213. The series is described as follows: MIC against S. aureus ATCC29213. Type of series: cell-based. Conditions: for MIC: Table 5.
The test system of series [3] is Clinical Staphylococcus aureus DM4001. As to the kind of experiment: MIC against clinical S. aureus DM4001. Type of series: cell-based. Set-up: MIC: unit not given here. To be noted: Clinical S. aureus DM4001, Source: Eye; for MIC: Table 5.
In series [4] the test system is red blood cell. The series is described as follows: Hemolytic activity / in vitro toxicity (HC50). To be noted: for Hemolytic concentration, HC50: Table 10; for HC50: Table 2-1, in vitro toxicity.
For series [5], the system named is MRSA DM21455. As to the kind of experiment: MIC against MRSA DM21455. The format is cell-based, Staphylococcus aureus. To be noted: MRSA DM21455, Source: Eye.
Series [6] concerns Bacillus cereus ATCC11778. As to the kind of experiment: MIC against Bacillus cereus ATCC11778. Type of series: cell-based. Conditions: for MIC: Table 5.
Series [7] has as its system S. aureus. The series is described as follows: MIC99 against S. aureus (Table 2-1). The format is cell-based, Staphylococcus aureus.
Series [8] concerns MRSA. As to the kind of experiment: MIC99 against MRSA (Table 2-1). The format is cell-based, Staphylococcus aureus.
In series [9] the test system is S. aureus DM4001. The series is described as follows: SYTOX green membrane permeabilization assay, S. aureus. Conditions: 10 μM; for SYTOX green staining of bacteria (fluorescence microscopy): FIG. 14; for Membrane permeabilization (SYTOX green fluorescence emission): fluorescence spectroscopy.
Protocol: S. aureus DM4001 was harvested at early exponential phase and suspended in 40 mM PBS until OD620 of 0.09 was obtained. Then, the bacteria suspension was incubated with 3 μM of SYTOX Green in dark. The mixture was monitored in a stirring cuvette at an excitation wavelength of 504 nm and at an emission wavelength of 523 nm until the fluorescence was stable. Then, 10 μM of AM compounds were added and the changed of fluorescence emissions were monitored.

`COc1c(O)cc2oc3cc(OCC(=O)O)c(CC=C(C)C)c(O)c3c(=O)c2c1CC=C(C)C` [AM-071] displayed an MIC100 in [1] of 250 nmol/mL. The “Minimum inhibition concentration (MIC)” value in series [2] was 12.5 µg/mL (≈ 26.7 µM); in [3], 25 µg/mL (≈ 53.4 µM); in [5], 25 µg/mL (≈ 53.4 µM); in [6], 6.25 µg/mL (≈ 13.3 µM). The MIC in series [2] came out at 26.68 µM (≈ 12.5 µg/mL); in [3], 53.36; in series [6], 13.34 µM (≈ 6.25 µg/mL). Moreover, in series [4], the “Hemolytic concentration, HC50” value amounted to 37.5 µg/mL.

With `COc1c(O)cc2oc3cc(O)c(CC=C(C)C)c(O)c3c(=O)c2c1CC=C(C)C` [AM-000, alpha-mangostin, reference compound], the “MIC99 S. aureus” value in [7] is 1.56 µg/mL (≈ 3.8 µM). The “MIC99 MRSA” value in series [8] stood at 1.56 µg/mL (≈ 3.8 µM). In addition, in series [4], the HC50 – broadly, the concentration giving 50% haemolysis – turned out to be 9 µg/mL and the “Hemolytic concentration, HC50” value is 6.5 µg/mL.

In the case of `CCN(CC)CCCCCCCCCCCCOc1cc2oc3cc(OCCCCCCCCCCCCN(CC)CC)c(OC)c(CC=C(C)C)c3c(=O)c2c(O)c1CC=C(C)C` [AM-045], in series [9], the “SYTOX green staining of bacteria (fluorescence microscopy)” value (“SYTOX green staining of bacteria” for short) was “no significant staining” and the “Membrane permeabilization (SYTOX green fluorescence emission)” value (“Membrane permeabilization” for short) is “not able to trigger the membrane permeabilization”.

Turning to `CCN(CC)CCCCCCCCCCOc1cc2oc3cc(OCCCCCCCCCCN(CC)CC)c(OC)c(CC=C(C)C)c3c(=O)c2c(O)c1CC=C(C)C` [AM-044], in series [9], the “SYTOX green staining of bacteria” value is reported as “no significant staining” and the “Membrane permeabilization” value is “not able to trigger the membrane permeabilization”.

Consider `COc1c(OCCCCN2CCOCC2)cc2oc3cc(OCCCCN4CCOCC4)c(CC=C(C)C)c(O)c3c(=O)c2c1CC=C(C)C` [AM-009], for which the “MIC99 S. aureus” value in series [7] is more than 200 µg/mL. In series [9], the “SYTOX green staining of bacteria” value is listed as “no significant staining” and the “Membrane permeabilization” value is “not able to trigger the membrane permeabilization”. Further, in [8], the “MIC99 MRSA” value was more than 200 µg/mL. Also, the MIC100 in series [1] was determined as 8 nmol/mL. This compound showed an MIC100 in series [1] (value in brackets) of 5.54 µg/mL. Besides, in [2], the “Minimum inhibition concentration (MIC)” value is more than 25 µg/mL. In addition, in [4], the 50% haemolytic concentration (HC50) was more than 200 µg/mL and the “Hemolytic concentration, HC50” value was more than 1000 µg/mL. The “Minimum inhibition concentration (MIC)” value in series [5] is more than 25 µg/mL.

As for `CCN(CC)CCCCCCCCOc1cc2oc3cc(OCCCCCCCCN(CC)CC)c(OC)c(CC=C(C)C)c3c(=O)c2c(O)c1CC=C(C)C` [AM-043], the “Membrane permeabilization” value in [9] was “weaker membrane permeabilization effect”.

For `CC(C)=CCc1c(O)cc2oc3cc(O)c(O)c(CC=C(C)C)c3c(=O)c2c1O` [AM-013, Gamma-mangostin, reference compound], the results for the MIC100 in series [1] and in series [1] (value in brackets) were 125 nmol/mL and 49.55 µg/mL, respectively.

For the compound `COc1c(OCC(=O)O)cc2oc3cc(O)c(CC=C(C)C)c(O)c3c(=O)c2c1CC=C(C)C` [AM-072], the MIC100 in series [1] was determined as 250 nmol/mL. Also, the “Minimum inhibition concentration (MIC)” value in series [2], in series [3], in series [5] and in series [6] was 6.25 µg/mL (≈ 13.3 µM) throughout. Besides, the MIC in [2] was 13.34 µM (≈ 6.25 µg/mL); in series [3], 13.34; in [6] it was 13.34 µM (≈ 6.25 µg/mL).
